Tested on: 328373-195-R-J1-PDC complex spheroids, viability % test/control
Test: Anticancer human tumor 328373-195-R-J1-PDC patient-derived head and neck squamous carcinoma cell line growth inhibition [CLK]
Settings: for IC50: curve of first compound; for viability, T/C: stronger effect = lower value
Summary of the method: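 Multi-cell-type spheroids combined patient-derived tumor cells with HUVEC endothelial cells and human mesenchymal stem cells. Paired agents were dosed in half-log steps down from about clinical Cmax, or from 10 microM where Cmax was unknown.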

[1] = second compound 0.0316 µM, first compound 0.0316 µM
[2] = second compound 0.0316 µM, first compound 0.1 µM
[3] = second compound 0.0316 µM, first compound 0.316 µM
[4] = second compound 0.0316 µM, first compound 1 µM
[5] = second compound 0.1 µM, first compound 0.0316 µM
[6] = second compound 0.1 µM, first compound 0.1 µM
[7] = second compound 0.1 µM, first compound 0.316 µM
[8] = second compound 0.1 µM, first compound 1 µM
[9] = second compound 0.316 µM, first compound 0.0316 µM
[10] = second compound 0.316 µM, first compound 0.1 µM
[11] = second compound 0.316 µM, first compound 0.316 µM
[12] = second compound 0.316 µM, first compound 1 µM
[13] = second compound 1 µM, first compound 0.0316 µM
[14] = second compound 1 µM, first compound 0.1 µM
[15] = second compound 1 µM, first compound 0.316 µM
[16] = second compound 1 µM, first compound 1 µM
[17] = second compound 3.16 µM, first compound 0.0316 µM
[18] = second compound 3.16 µM, first compound 0.1 µM
[19] = second compound 3.16 µM, first compound 0.316 µM
[20] = second compound 3.16 µM, first compound 1 µM
[21] = second compound 10 µM, first compound 0.0316 µM
[22] = second compound 10 µM, first compound 0.1 µM
[23] = second compound 10 µM, first compound 0.316 µM
[24] = second compound 10 µM, first compound 1 µM
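Note: spheroids exposed to the agents for 7 days.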

CC(Nc1ccc2c(c1)OCCn1cc(N3C(=O)OCC3C(F)F)nc1-2)C(N)=O (centres undefined) + CN1CCN(c2cc(C(=O)Nc3cc4cc(-c5cnn(C)c5)ccc4cn3)ccn2)CC1
IC50 (second compound 0.0316 µM): > 10000 nM | IC50 (second compound 0.1 µM): 2420 nM | IC50 (second compound 0.316 µM): < 31.6 nM | IC50 (second compound 1 µM): < 31.6 nM | IC50 (second compound 3.16 µM): < 31.6 nM | IC50 (second compound 10 µM): < 31.6 nM | viability, T/C [1]: 90.4% | viability, T/C [2]: 88.7% | viability, T/C [3]: 87.1% | viability, T/C [4]: 78.4% | viability, T/C (second compound 0.0316 µM, first compound 3.16 µM): 58.1% | viability, T/C (second compound 0.0316 µM, first compound 10 µM): 53.7% | viability, T/C [5]: 75.8% | viability, T/C [6]: 74.3% | viability, T/C [7]: 73.7% | viability, T/C [8]: 67.2% | viability, T/C (second compound 0.1 µM, first compound 3.16 µM): 44.2% | viability, T/C (second compound 0.1 µM, first compound 10 µM): 45.4% | viability, T/C [9]: 34.3% | viability, T/C [10]: 28.9% | viability, T/C [11]: 28.8% | viability, T/C [12]: 23.8% | viability, T/C (second compound 0.316 µM, first compound 3.16 µM): 17.7% | viability, T/C (second compound 0.316 µM, first compound 10 µM): 17.5% | viability, T/C [13]: 0.25% | viability, T/C [14]: 0.23% | viability, T/C [15]: 1.16% | viability, T/C [16]: 0.41% | viability, T/C (second compound 1 µM, first compound 3.16 µM): 1.23% | viability, T/C (second compound 1 µM, first compound 10 µM): 1.08% | viability, T/C [17]: 1.31% | viability, T/C [18]: 0.16% | viability, T/C [19]: 1.05% | viability, T/C [20]: 0.11% | viability, T/C (second compound 3.16 µM, first compound 3.16 µM): 2.46% | viability, T/C (second compound 3.16 µM, first compound 10 µM): 2.43% | viability, T/C [21]: 0.1% | viability, T/C [22]: 1.44% | viability, T/C [23]: 0.26% | viability, T/C [24]: 0.2% | viability, T/C (second compound 10 µM, first compound 3.16 µM): 2.32% | viability, T/C (second compound 10 µM, first compound 10 µM): 1.83%

CCN1CCN(Cc2ccc(Nc3ncc(F)c(-c4cc(F)c5nc(C)n(C(C)C)c5c4)n3)nc2)CC1 + CN1CCN(c2cc(C(=O)Nc3cc4cc(-c5cnn(C)c5)ccc4cn3)ccn2)CC1
IC50 (second compound 0.0316 µM): > 1000 nM | IC50 (second compound 0.1 µM): > 1000 nM | IC50 (second compound 0.316 µM): < 3.16 nM | IC50 (second compound 1 µM): < 3.16 nM | IC50 (second compound 3.16 µM): < 3.16 nM | IC50 (second compound 10 µM): < 3.16 nM | viability, T/C (second compound 0.0316 µM, first compound 0.00316 µM): 94.7% | viability, T/C (second compound 0.0316 µM, first compound 0.01 µM): 95.9% | viability, T/C [1]: 103% | viability, T/C [2]: 79.5% | viability, T/C [3]: 71.3% | viability, T/C [4]: 51.2% | viability, T/C (second compound 0.1 µM, first compound 0.00316 µM): 86.5% | viability, T/C (second compound 0.1 µM, first compound 0.01 µM): 84.8% | viability, T/C [5]: 88.5% | viability, T/C [6]: 69.3% | viability, T/C [7]: 63% | viability, T/C [8]: 53.3% | viability, T/C (second compound 0.316 µM, first compound 0.00316 µM): 29.9% | viability, T/C (second compound 0.316 µM, first compound 0.01 µM): 32.9% | viability, T/C [9]: 31.6% | viability, T/C [10]: 26.5% | viability, T/C [11]: 24.2% | viability, T/C [12]: 18.5% | viability, T/C (second compound 1 µM, first compound 0.00316 µM): 0.16% | viability, T/C (second compound 1 µM, first compound 0.01 µM): 2.17% | viability, T/C [13]: 0.34% | viability, T/C [14]: 1.1% | viability, T/C [15]: 0.85% | viability, T/C [16]: 0.24% | viability, T/C (second compound 3.16 µM, first compound 0.00316 µM): 0.11% | viability, T/C (second compound 3.16 µM, first compound 0.01 µM): 1.57% | viability, T/C [17]: 1.92% | viability, T/C [18]: 0.15% | viability, T/C [19]: 1.14% | viability, T/C [20]: 0.2% | viability, T/C (second compound 10 µM, first compound 0.00316 µM): 0.37% | viability, T/C (second compound 10 µM, first compound 0.01 µM): 0.56% | viability, T/C [21]: 3.2% | viability, T/C [22]: 0.17% | viability, T/C [23]: 1.94% | viability, T/C [24]: 1.71%

Reference: PubChem BioAssay AID2060620 (Molecular Pharmacology Branch, DTP, NCI, 2025)
